Patent US20100061928A1, “LABELLED ANALOGUES OF HALOBENZAMIDES AS RADIOPHARMACEUTICALS” (Institut National De La Sante et De La Recherche Medicale …, priority 2006, published 2010)
pIC50: −log10 of the molar value. Where a name gives a salt, the structure may show the parent alone.

Tests used:
[1] = tested on: melanoma grafted subcutaneously (B16 F0 cells); assay: Antitumour effectiveness by systemic administration after labelling with ^131I; format: in vivo, C57BL6 mice
Description: The study relates to 20 C57B16 mice bearing a melanoma grafted subcutaneously by injection of 50 000 B16 F0 cells (0.1 ml). On the 17th day, the animals are weighed and the tumours are measured in two dimensions (L, l), the tumour volume being expressed by L×l^2×½. On the 18th day (D18), the mice are divided into two groups, the labelled compound [^131I]-31 with a high specific activity is administered by the i.v. route (37 MBq; 0.2 ml) to 10 mice and 10 constitute the control batch. The monitoring of the animals is carried out with all the necessary radioprotection measures and in particular the removal of the contaminated bedding, the animals are weighed and the tumours are measured every two days. Taking into account the volume of the tumours and ethical considerations, the surviving animals were euthenized on the 20th day after injection, i.e. 38 days after the tumour graft. […] The evaluation of the effectiveness of an i.v. administration of [^131I]-31 on tumour growth of C57BL6 mice which have received a subcutaneous graft of B 16 melanoma 18 days before treatment is represented in FIG. 2. The times on the abscissa are given with respect to the day of inoculation of the tumours and with respect to the day of treatment.
The evaluation of the effectiveness of an i.v. administration of [^131I]-46 on tumour growth of C57BL6 mice which have received a subcutaneous graft of B 16 melanoma is represented in FIG. 3. The times on the abscissa are given with respect to the day of inoculation of the tumours and with respect to the first day of treatment. Under these conditions, the median of survival is extended and changes from 32 days for the control animals to 39 days for the treated animals. This experiment was repeated according to the same protocol and fully superimposable results were obtained.

[2] = tested on: murine melanoma (B16 F0); assay: Cytotoxicity, Hoechst test, B16 F0
Description: The B16 F0, M4Beu and fibroblast lines are cultured in 75 cm^2 dishes comprising 12 ml of Eagle's essential medium with Earle's salts and Glutamax (Gibco-BRL, Paisley, Scotland) supplemented with 10% foetal calf serum, a solution of vitamins at 1× (Gibco), 1 mM sodium pyruvate (Gibco), a solution of nonessential amino acids at 1× (Gibco) and 4 μg/ml of gentamicin (antibiotic).
The cells are maintained at 37° C. in an incubator under an atmosphere comprising 5% CO2.
The cells (5×10^3) in 150 μl of culture medium are inoculated in 96-well plates (Nunclon™, Nunc, Roskilde, Denmark). […] The stock solutions (200×) are prepared with DMSO and are then stored at −20° C. 50 μl of a solution comprising stock solution and culture medium are subsequently added to the various wells (taking into account the different dilutions). Each test is carried out in triplicate.
The amount of cellular DNA is subsequently measured by the Hoechst test. The plates are then defrosted at ambient temperature for 10 minutes. 100 μl of a 0.01% (w/v) solution of SDS (sodium dodecyl sulphate) in sterile distilled water are subsequently added using a microvolume dispenser. The plates (96 well) are incubated with stirring at ambient temperature for 30 minutes and are then frozen at −80° C. for one hour. The plates are subsequently defrosted at ambient temperature for 20 minutes. […] The plates are then incubated for one hour at ambient temperature, with stirring and with the exclusion of light. The fluorescence obtained is measured using a Fluoroskan 96-well at the excitation wavelength at 360 nm and emission wavelength at 460 nm. Under these conditions, the fluorescence is proportional to the cell biomass in each well. The percentage of survival is defined by the fluorescence in each well (treated) with respect to the fluorescence of the control wells (drug-free), the blanks being subtracted (drug-free and cell-free wells).

[3] = tested on: B16 F0 murine melanoma cells; assay: Colony forming technique: chemotherapeutic and radiotherapeutic (^125I) effects in vitro; format: cell-based; conditions: for % of inhibition (Radiotherapeutic effects alone): 125I-labelled, high specific activity; for % of inhibition: radiotherapeutic effects alone
Description: The colony forming technique is involved, that is to say the growth of colonies of clones starting from tumour cells (B16 F0 murine melanoma cells) inoculated at a low concentration. This method makes it possible to visualize the cytotoxic and cytostatic properties of the compounds studied. The study was carried out in three parts:
The experiment is carried out on 6-well plates where 200 cells are inoculated in 2 ml of DMEM medium. After 20 hours, the medium is withdrawn and replaced with 2 ml of medium comprising the labelled compound at the desired concentration. This study is carried out in comparison with control wells comprising DMEM medium alone. […] The plates are incubated for 8 days and then the medium is withdrawn. The wells are rinsed with PBS and methanol is added for 3 minutes. Once attached, the cells are coloured with crystal violet with a contact time of 3 minutes. Subsequently, the colonies comprising more than 50 cells are counted using a dedicated counter. The growth of the treated colonies of cells is quantified in comparison with the controls. The activity of the product is expressed by a percentage of inhibition:
100−[(number of treated colonies)/(number of control colonies)]×100

[4] = tested on: tumour; assay: Dosimetry with regard to the tumour (MIRD programme, extrapolated to ^131I); conditions: for Effective period: extrapolated to 131I labelling; for Biological period: from biodistribution data
[5] = tested on: grafted B16 F0 murine melanoma tumour; assay: Biodistribution of the ^125I-labelled molecules in the melanoma-bearing mouse (autoradiography of whole-body sections); conditions: for Concentration of radioactivity, B 16 (tumour), Mean / Concentration of radioactivity, Ic (intestinal contents), Mean / Concentration of radioactivity, Sc (stomach contents), Mean / Concentration of radioactivity, blood (measured in the heart cavity), Mean / Concentration of radioactivity, brain, Mean / Concentration of radioactivity, kidney, Mean / Concentration of radioactivity, liver, Mean / Concentration of radioactivity, lungs, Mean / Concentration of radioactivity, muscle (skeletal muscle), Mean / Concentration of radioactivity, spleen, Mean / Concentration of radioactivity, uvea (pigmented tissues of the eye), Mean: ^125I-labelled compound
Description: The distribution of the radioactivity of the various compounds in the body (tumour and other organs) is quantified using an Ambis 4000 image analyzer on sections of whole animals. […] All the in vivo experimentation is carried out within the context defined by French legislation relating to animal experimentation.
The B16 F0 melanoma cells are provided by the ATCC and cultured in monolayers in culture medium (MEM, Invitrogen) supplemented with 10% foetal calf serum and antibiotics. The cultures are maintained by subculturing after trypsinization. The cells of the first passages are frozen and stored in liquid nitrogen. For the transplanting, the cells in culture at confluence are detached by trypsinization and washed with phosphate buffer (PBS).
The distribution of the radioactivity present in the sections is analyzed using an AMBIS 4000 analyzer (Scanalytics, CSPI, San Diego, Calif.), which is a proportional counter with a multiwire chamber validated and calibrated beforehand for the monitoring of iodine in the mouse. The measurements require acquisition times of 1000 minutes. […] The value of radioactivity per unit of surface area (cpm/mm^2) is converted to concentration (kBq/g) and expressed as percentage of the injected dose/g of tissue (% ID/g).

[6] = Elimination of the molecules: cumulative urinary and faecal excretion 0-72 hours; format: in vivo, mouse; conditions: cumulative excretion 0-72 hours; for Faecal elimination 0-72 hours (Faeces) / Urinary elimination 0-72 hours (Urine): mice in metabolic cages; for Urinary and faecal elimination 0-72 hours (Total): urine + faeces
[7] = single i.v. administration 37 MBq on D18 after graft, versus controls

CCN(CC)CCNC(=O)c1ccc2cc([131I])ccc2n1.Cl.Cl [[^131I]-31, [^131I]-N-(2-diethylaminoethyl)-6-iodoquinoline-2-carboxamide dihydrochloride]
median of survival (in words) [1, 7]: a significant difference regarding the median of survival was not demonstrated | tumour growth (in words) [1, 7]: markedly slowed down

COc1cc(NS(C)(=O)=O)ccc1Nc1c2ccccc2nc2ccccc12 [amsacrine, reference compound]
pIC50 ([2]; read-out: IC50 B16, B16 F0 murine melanoma, 48 hours incubation, Hoechst test): 7.46

CCN(CC)CCNC(=O)c1cnc2cc([131I])ccc2n1.Cl [[^131I]-46, [^131I]-N-(2-diethylaminoethyl)-6-iodoquinoxaline-2-carboxamide hydrochloride]
tumour growth (in words) ([1]; two doses of 18.5 MBq i.v., 6 and 10 days after induction of the tumours): clearly slowed down | median of survival, treated animals ([1]; two doses of 18.5 MBq i.v., 6 and 10 days after induction of the tumours, control animals 32 days): 39 days

CCN(CC)CCNC(=O)c1cccc2cc3cccc([125I])c3nc12.Cl.Cl [[^125I]-102, [^125I]-N-(2-diethylaminoethyl)-5-iodoacridine-4-carboxamide dihydrochloride]
% of inhibition (Radiotherapeutic effects alone) ([3]; 1.39 kBq, 8.625 pM): 11% | % of inhibition (Radiotherapeutic effects alone) ([3]; 2.78 kBq, 17.25 pM): 14.3% | % of inhibition (Radiotherapeutic effects alone) ([3]; 5.55 kBq, 34.5 pM): 40.3% | % of inhibition (Radiotherapeutic effects alone) ([3]; 11.1 kBq, 69 pM): 65.5% | % of inhibition (Radiotherapeutic effects alone) ([3]; 16.7 kBq, 103.5 pM): 79% | % of inhibition (Radiotherapeutic effects alone) ([3]; 22.2 kBq, […]): 96.1% | Cumulative effect (% inhib) (Radiotherapeutic and chemotherapeutic effects) ([3]; cold compound 102 at 6.25 nM with [125I]-102 1.39 kBq): 30% | Cumulative effect (% inhib) (Radiotherapeutic and chemotherapeutic effects) ([3]; cold compound 102 at 6.25 nM with [125I]-102 2.78 kBq): 37.5% | Cumulative effect (% inhib) (Radiotherapeutic and chemotherapeutic effects) ([3]; cold compound 102 at 6.25 nM with [125I]-102 5.55 kBq): 59.5% | Cumulative effect (% inhib) (Radiotherapeutic and chemotherapeutic effects) ([3]; cold compound 102 at 6.25 nM with [125I]-102 11.1 kBq): 76.5% | Cumulative effect (% inhib) (Radiotherapeutic and chemotherapeutic effects) ([3]; cold compound 102 at 6.25 nM with [125I]-102 16.7 kBq): 89%

CCN(CC)CCNC(=O)c1cccc2c(=O)c3cc([125I])ccc3[nH]c12.Cl.Cl [[^125I]-84, [^125I]-N-(2-diethylaminoethyl)-9,10-dihydro-7-iodo-9-oxoacridine-4-carboxamide dihydrochloride]
Cumulative effect (% inhib) ([3]; cold compound 84 at 0.75 μM with labelled [^125I]-84, activity 0): 17.3 % inhib | Cumulative effect (% inhib) ([3]; cold compound 84 at 0.75 μM with labelled [^125I]-84, activity 1.5 kBq): 18.3 % inhib | Cumulative effect (% inhib) ([3]; cold compound 84 at 0.75 μM with labelled [^125I]-84, activity 6 kBq): 22 % inhib | Cumulative effect (% inhib) ([3]; cold compound 84 at 0.75 μM with labelled [^125I]-84, activity 12 kBq): 40.3 % inhib | Cumulative effect (% inhib) ([3]; cold compound 84 at 0.75 μM with labelled [^125I]-84, activity 24 kBq): 54 % inhib | Cumulative effect (% inhib) ([3]; cold compound 84 at 0.75 μM with labelled [^125I]-84, activity 48 kBq): 88 % inhib | % of inhibition ([3]; activity 1.5 kBq, concentration 9.31 pM): 4.5% | % of inhibition ([3]; activity 6 kBq, concentration 37.23 pM): 12.4% | % of inhibition ([3]; activity 12 kBq, concentration 74.5 pM): 29% | % of inhibition ([3]; activity 24 kBq, concentration 148.9 pM): 30% | % of inhibition ([3]; activity 48 kBq, concentration 297.8 pM): 69%

CCN(CC)CCNC(=O)c1cccc2cc3cccc(I)c3nc12 [compound 102, N-(2-diethylaminoethyl)-5-iodoacridine-4-carboxamide dihydrochloride]
cytotoxic activity compared with DACA (in words) ([2]; various cell lines studied (B16 F0, M4Beu, fibroblasts)): greater activity than the parent compound | Effective period [4]: 35.4 h | Biological period [4]: 43.3 hours | Biodistribution, Mean, GB ([5]; 1 H): 281.34 | Biodistribution, Mean, GB ([5]; 6 H): 281.20 | Biodistribution, Mean, muscle ([5]; 1 H): 2.34 | Biodistribution, Mean, muscle ([5]; 3 H): 1.34 | Biodistribution, Mean, muscle ([5]; 6 H): 1.36

[125I-].[Na+] [Na^125I, sodium iodide Na^125I, reference compound]
effect on colony growth (in words) ([3]; comparison for the compounds labelled with iodine-125 with a high specific activity): without effect

CCN(CC)CCNC(=O)c1nc2ccccn2c1I [compound 16, N-(2-diethylaminoethyl)-3-iodoimidazo[1,2-a]pyridine-2-carboxamide dihydrochloride]
Effective period [4]: 7.5 h | Biological period [4]: 7.8 hours | Faecal elimination 0-72 hours (Faeces) [6]: 24.0% | Urinary and faecal elimination 0-72 hours (Total) [6]: 76.6% | Urinary elimination 0-72 hours (Urine) [6]: 52.6% | Concentration of radioactivity, B 16 (tumour), Mean ([5]; 1 H after i.v. administration): 2.96 % ID/g | Concentration of radioactivity, Ic (intestinal contents), Mean ([5]; 1 H after i.v. administration): 58.60 % ID/g | Concentration of radioactivity, Sc (stomach contents), Mean ([5]; 1 H after i.v. administration): 24.51 % ID/g | Concentration of radioactivity, blood (measured in the heart cavity), Mean ([5]; 1 H after i.v. administration): 2.20 % ID/g | Concentration of radioactivity, brain, Mean ([5]; 1 H after i.v. administration): 0.33 % ID/g | Concentration of radioactivity, kidney, Mean ([5]; 1 H after i.v. administration): 7.12 % ID/g | Concentration of radioactivity, liver, Mean ([5]; 1 H after i.v. administration): 4.86 % ID/g | Concentration of radioactivity, lungs, Mean ([5]; 1 H after i.v. administration): 6.48 % ID/g | Concentration of radioactivity, muscle (skeletal muscle), Mean ([5]; 1 H after i.v. administration): 1.10 % ID/g | Concentration of radioactivity, spleen, Mean ([5]; 1 H after i.v. administration): 8.16 % ID/g | Concentration of radioactivity, uvea (pigmented tissues of the eye), Mean ([5]; 1 H after i.v. administration): 28.30 % ID/g | Concentration of radioactivity, B 16 (tumour), Mean ([5]; 3 H after i.v. administration): 5.40 % ID/g | Concentration of radioactivity, Ic (intestinal contents), Mean ([5]; 3 H after i.v. administration): 52.06 % ID/g | Concentration of radioactivity, Sc (stomach contents), Mean ([5]; 3 H after i.v. administration): 30.71 % ID/g | Concentration of radioactivity, blood (measured in the heart cavity), Mean ([5]; 3 H after i.v. administration): 3.93 % ID/g | Concentration of radioactivity, brain, Mean ([5]; 3 H after i.v. administration): 0.36 % ID/g | Concentration of radioactivity, kidney, Mean ([5]; 3 H after i.v. administration): 5.04 % ID/g | Concentration of radioactivity, liver, Mean ([5]; 3 H after i.v. administration): 2.56 % ID/g | Concentration of radioactivity, lungs, Mean ([5]; 3 H after i.v. administration): 3.38 % ID/g | Concentration of radioactivity, muscle (skeletal muscle), Mean ([5]; 3 H after i.v. administration): 1.30 % ID/g | Concentration of radioactivity, spleen, Mean ([5]; 3 H after i.v. administration): 12.67 % ID/g | Concentration of radioactivity, uvea (pigmented tissues of the eye), Mean ([5]; 3 H after i.v. administration): 16.60 % ID/g | Concentration of radioactivity, B 16 (tumour), Mean ([5]; 6 H after i.v. administration): 9.87 % ID/g | Concentration of radioactivity, Ic (intestinal contents), Mean ([5]; 6 H after i.v. administration): 26.14 % ID/g | Concentration of radioactivity, Sc (stomach contents), Mean ([5]; 6 H after i.v. administration): 48.21 % ID/g | Concentration of radioactivity, brain, Mean ([5]; 6 H after i.v. administration): 0.65 % ID/g | Concentration of radioactivity, kidney, Mean ([5]; 6 H after i.v. administration): 4.47 % ID/g | Concentration of radioactivity, lungs, Mean ([5]; 6 H after i.v. administration): 4.56 % ID/g | Concentration of radioactivity, uvea (pigmented tissues of the eye), Mean ([5]; 6 H after i.v. administration): 22.16 % ID/g | Concentration of radioactivity, B 16 (tumour), Mean ([5]; 24 H after i.v. administration): 5.22 % ID/g | Concentration of radioactivity, uvea (pigmented tissues of the eye), Mean ([5]; 24 H after i.v. administration): 11.17 % ID/g | Concentration of radioactivity, Sc (stomach contents), Mean ([5]; 72 H after i.v. administration): 3.42 % ID/g | Concentration of radioactivity, uvea (pigmented tissues of the eye), Mean ([5]; 72 H after i.v. administration): 2.41 % ID/g

CCN(CC)CCNC(=O)c1cccc2c(=O)c3cc(I)ccc3[nH]c12 [compound 84, N-(2-diethylaminoethyl)-9,10-dihydro-7-iodo-9-oxoacridine-4-carboxamide hydrochloride]
Effective period [4]: 112.5 h | Biological period [4]: 268.9 hours | Faecal elimination 0-72 hours (Faeces) [6]: 38.4% | Urinary and faecal elimination 0-72 hours (Total) [6]: 48.8% | Urinary elimination 0-72 hours (Urine) [6]: 10.4% | tumour concentration, times higher than with BZA ([5]; at 72 hours (FIG. 1B)): 22 times
